Values quoted from earlier work in patent US8613946B2, “Carotenoids of enhanced bioavailability” (ISP Investment Inc., priority 2006, dated 2013).
Like-named read-outs stand apart in the source and are kept apart here.

[1] = classification of The Merck Index

| Structure (SMILES) | solubility in water [1] | solubility in water (statement of The PDR For Nutritional Supplements) |
| --- | --- | --- |
| CC1=C[C@H](O)CC(C)(C)[C@H]1/C=C/C(C)=C/C=C/C(C)=C/C=C/C=C(C)/C=C/C=C(C)/C=C/C1=C(C)C[C@@H](O)CC1(C)C [lutein] | insoluble in water | – |
| CC(C)=CCC/C(C)=C/C=C/C(C)=C/C=C/C(C)=C/C=C/C=C(C)/C=C/C=C(C)/C=C/C=C(\C)CCC=C(C)C [lycopene] | – | insoluble in water |
| CC1=CCCC(C)(C)C1/C=C/C(C)=C/C=C/C(C)=C/C=C/C=C(C)/C=C/C=C(C)/C=C/C1=C(C)CCCC1(C)C (stereo not drawn) [α-carotene] | practically insoluble in water | – |
| CC1=C(/C=C/C(C)=C/C=C/C(C)=C/C=C/C=C(C)/C=C/C=C(C)/C=C/C2=C(C)CCCC2(C)C)C(C)(C)CCC1 [β-carotene] | practically insoluble in water | – |
